Results reported in ChEMBL document CHEMBL1201862, “PubChem BioAssay data set” (2004).
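Step 1: Grow cells in 96-well plates. Step 2: Expose to compound for 48 hours at 5 concentrations. Step 3: Interpolate endpoints linearly; if unreached, use highest concentration. The concentration for 50% growth inhibition is given as GI50.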 The source made the active and inactive calls. Cut-off read from the data, not from the text of the source: active = GI50 up to about 1.1 µM and inactive = higher.

Experiments:
Assay in all cases: NCI anticancer screen, dose series, 48 h
786-0 = test system: 786-0
A498 = test system: A498
A549 = test system: A549
ACHN = test system: ACHN
BT-549 = test system: BT-549
CAKI-1 = test system: CAKI-1
CCRF-CEM = test system: CCRF-CEM
COLO 205 = test system: COLO 205
DU-145 = test system: DU-145
EKVX = test system: EKVX
HCC 2998 = test system: HCC 2998
HCT-116 = test system: HCT-116
HCT-15 = test system: HCT-15
HOP-62 = test system: HOP-62
HT-29 = test system: HT-29
Hs-578T = test system: Hs-578T
IGROV-1 = test system: IGROV-1
K562 = test system: K562
KM12 = test system: KM12
LOX IMVI = test system: LOX IMVI
M14 = test system: M14
MCF7 = test system: MCF7
MDA-MB-435 = test system: MDA-MB-435
MDA-N = test system: MDA-N
MOLT-4 = test system: MOLT-4
Malme-3M = test system: Malme-3M
NCI-H226 = test system: NCI-H226
NCI-H23 = test system: NCI-H23
NCI-H460 = test system: NCI-H460
NCI-H522 = test system: NCI-H522
NCI/ADR-RES = test system: NCI/ADR-RES
OVCAR-3 = test system: OVCAR-3
OVCAR-4 = test system: OVCAR-4
OVCAR-5 = test system: OVCAR-5
OVCAR-8 = test system: OVCAR-8
PC-3 = test system: PC-3
RPMI-8226 = test system: RPMI-8226
RXF 393 = test system: RXF 393
SF-268 = test system: SF-268
SF-295 = test system: SF-295
SF-539 = test system: SF-539
SK-MEL-28 = test system: SK-MEL-28
SK-MEL-2 = test system: SK-MEL-2
SK-MEL-5 = test system: SK-MEL-5
SK-OV-3 = test system: SK-OV-3
SN12C = test system: SN12C
SNB-19 = test system: SNB-19
SW-620 = test system: SW-620
T47D = test system: T47D
TK-10 = test system: TK-10
U-251 = test system: U-251
UACC-257 = test system: UACC-257
UACC-62 = test system: UACC-62
UO-31 = test system: UO-31

Structure (SMILES): O=C(O)CC(Cc1ccccc1)C(=O)O (centres undefined)
- GI50 (786-0): 76.2 µM (inactive)
- GI50 (A498): > 100 µM (inactive)
- GI50 (A549): > 100 µM (inactive)
- GI50 (ACHN): > 100 µM (inactive)
- GI50 (BT-549): > 100 µM (inactive)
- GI50 (CAKI-1): > 100 µM (inactive)
- GI50 (CCRF-CEM): > 100 µM (inactive)
- GI50 (COLO 205): > 100 µM (inactive)
- GI50 (DU-145): > 100 µM (inactive)
- GI50 (EKVX): > 100 µM (inactive)
- GI50 (HCC 2998): > 100 µM (inactive)
- GI50 (HCT-116): > 100 µM (inactive)
- GI50 (HCT-15): > 100 µM
- GI50 (HOP-62): > 100 µM (inactive)
- GI50 (HT-29): > 100 µM (inactive)
- GI50 (Hs-578T): 50.5 µM (inactive)
- GI50 (IGROV-1): > 100 µM (inactive)
- GI50 (K562): > 100 µM (inactive)
- GI50 (KM12): > 100 µM (inactive)
- GI50 (LOX IMVI): > 100 µM (inactive)
- GI50 (M14): > 100 µM (inactive)
- GI50 (MCF7): > 100 µM (inactive)
- GI50 (MDA-MB-435): > 100 µM (inactive)
- GI50 (MDA-N): 56.5 µM (inactive)
- GI50 (MOLT-4): > 100 µM (inactive)
- GI50 (Malme-3M): > 100 µM (inactive)
- GI50 (NCI-H226): 50.4 µM (inactive)
- GI50 (NCI-H23): > 100 µM (inactive)
- GI50 (NCI-H460): > 100 µM (inactive)
- GI50 (NCI-H522): > 100 µM (inactive)
- GI50 (NCI/ADR-RES): > 100 µM (inactive)
- GI50 (OVCAR-3): > 100 µM (inactive)
- GI50 (OVCAR-4): > 100 µM (inactive)
- GI50 (OVCAR-5): > 100 µM (inactive)
- GI50 (OVCAR-8): > 100 µM (inactive)
- GI50 (PC-3): > 100 µM (inactive)
- GI50 (RPMI-8226): > 100 µM (inactive)
- GI50 (RXF 393): > 100 µM (inactive)
- GI50 (SF-268): > 100 µM (inactive)
- GI50 (SF-295): > 100 µM (inactive)
- GI50 (SF-539): > 100 µM (inactive)
- GI50 (SK-MEL-28): > 100 µM (inactive)
- GI50 (SK-MEL-2): > 100 µM (inactive)
- GI50 (SK-MEL-5): > 100 µM (inactive)
- GI50 (SK-OV-3): > 100 µM (inactive)
- GI50 (SN12C): 37.2 µM (inactive)
- GI50 (SNB-19): > 100 µM (inactive)
- GI50 (SW-620): > 100 µM (inactive)
- GI50 (T47D): > 100 µM (inactive)
- GI50 (TK-10): > 100 µM (inactive)
- GI50 (U-251): > 100 µM (inactive)
- GI50 (UACC-257): > 100 µM (inactive)
- GI50 (UACC-62): > 100 µM (inactive)
- GI50 (UO-31): > 100 µM (inactive)
